Laboratory results: patent US7776558B2, “Human G protein-coupled receptor and modulators thereof for the treatment of cell death-related disorders” (Arena Pharmaceuticals, Inc., priority 2003, dated 2010)
Where no end group is shown, it is not given here.

Legend:
human FPRL2 = biological target: T1, human FPRL2 (Homo sapiens, UniProt P25089); experiment: Melanophore assay (pigment aggregation, Gi coupling); assay type: cell-based; design: expressed in transfected cells; conditions: FPRL2 double tagged (HA/V5), transient; FIG. 4; read-out: EC50 of promoted pigment aggregation in melanophore (Gi coupling)
T1 sequence (P25089 with tags, fused parts or gaps): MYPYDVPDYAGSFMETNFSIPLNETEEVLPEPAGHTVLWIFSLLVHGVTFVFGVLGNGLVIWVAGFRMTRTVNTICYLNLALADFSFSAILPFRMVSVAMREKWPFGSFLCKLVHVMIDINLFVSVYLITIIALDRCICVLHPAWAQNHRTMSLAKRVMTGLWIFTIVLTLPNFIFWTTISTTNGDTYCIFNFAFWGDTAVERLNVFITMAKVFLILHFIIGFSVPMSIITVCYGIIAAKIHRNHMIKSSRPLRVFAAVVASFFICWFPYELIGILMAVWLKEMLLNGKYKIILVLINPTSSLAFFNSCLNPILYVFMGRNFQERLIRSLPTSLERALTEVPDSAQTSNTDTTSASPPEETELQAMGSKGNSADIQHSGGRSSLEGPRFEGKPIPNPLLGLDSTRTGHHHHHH
Text: Melanophores are skin cells found in lower vertebrates. They contain pigmented organelles termed melanosomes. Melanophores are able to redistribute these melanosomes along a microtubule network upon G-protein coupled receptor (GPCR) activation. The result of this pigment movement is an apparent lightening or darkening of the cells. In melanophores, the decreased levels of intracellular cAMP that result from activation of a Gi-coupled receptor cause melanosomes to migrate to the center of the cell, resulting in a dramatic lightening in color. If cAMP levels are then raised, following activation of a Gs-coupled receptor, the melanosomes are re-dispersed and the cells appear dark again. The increased levels of diacylglycerol that result from activation of Gq-coupled receptors can also induce this re-dispersion. In addition, the technology is also suited to the study of certain receptor tyrosine kinases. […] The response can be easily detected using a conventional absorbance microplate reader or a modest video imaging system. […]
Melanophores can be utilized to identify compounds, including natural ligands, against GPCRs. […] The test cells are then contacted with chemical compounds, and it is determined whether the pigment disposition in the cells changed from the initial state of pigment disposition. […]

FPRL1 [1] = biological target: T2, FPRL1 (Homo sapiens, UniProt P25090); conditions: Ying et al. 2002; cited from earlier work
T2 sequence (P25090 1-351): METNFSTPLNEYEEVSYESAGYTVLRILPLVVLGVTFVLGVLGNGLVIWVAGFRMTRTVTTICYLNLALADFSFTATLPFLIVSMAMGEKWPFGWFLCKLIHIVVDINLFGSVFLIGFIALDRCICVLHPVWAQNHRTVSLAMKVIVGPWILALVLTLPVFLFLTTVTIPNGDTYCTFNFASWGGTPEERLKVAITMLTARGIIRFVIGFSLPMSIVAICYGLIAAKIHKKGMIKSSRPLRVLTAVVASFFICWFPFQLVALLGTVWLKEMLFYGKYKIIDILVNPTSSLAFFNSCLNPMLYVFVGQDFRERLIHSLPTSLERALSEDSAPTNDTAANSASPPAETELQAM

[2] = mice; Mamiya & Ukai 2001; cited from earlier work
FPRL1 [3] = biological target: T2, FPRL1; experiment: [35S]GTPγS binding assay, membranes of transiently transfected CHO cells; assay type: biochemical; design: Full-Length Cloning of Human GPCRs; expressed in transfected cells; host or cells: CHO-K1 cells, transient, pCMV; plasma membranes; conditions: FIG. 3 panel B, read-out: EC50 at FPRL1, promoted [35S]GTPγS binding

EC50 (FPRL1 [3]) [nM] | Compound | EC50 (human FPRL2) [nM] | Use of FPRL1 as receptor (FPRL1 [1]) | Learning and memory impairment [2]
– | CC[C@H](C)[C@H](NC(=O)[C@H](CCC(=O)O)NC(=O)[C@H](CO)NC(=O)[C@@H](NC(=O)[C@H](CC(C)C)NC(=O)[C@H](CC(C)C)NC(=O)[C@H](CC(C)C)NC(=O)[C@H](CC(C)C)NC(=O)[C@H](CS)NC(=O)[C@H](CO)NC(=O)[C@H](Cc1ccccc1)NC(=O)CNC(=O)[C@H](CCCNC(=N)N)NC(=O)[C@@H]1CCCN1C(=O)[C@H](C)NC(=O)[C@@H](N)CCSC)[C@@H](C)O)C(=O)N[C@@H](CC(=O)O)C(=O)N[C@@H](CC(C)C)C(=O)N1CCC[C@H]1C(=O)N[C@H](C(=O)N[C@@H](CCCCN)C(=O)N[C@@H](CCCNC(=N)N)C(=O)N[C@@H](CCCNC(=N)N)C(=O)N[C@@H](C)C(=O)O)C(C)C [Humanin] | ~239 | uses FPRL1 as a functional receptor | improve learning and memory impairment in mice
~1500 | MAPRGFSCLLLLTGEIDLPVKRRA [[Gly14]-Humanin] | – | – | –
